Values after ≈ are worked out from the molar mass of the structure shown.
Legend:
[1] = Permeability of compound; format: ADME; details: not told; read-out: permeability
[2] = molecular target: Bromodomain-containing protein 4 (Homo sapiens, UniProt O60885, Y390A); test: Inhibition of 6His-Thr-BRD4 (1 to 477 residues) BD2 domain Y390A mutant (unknown origin) incubated for 30 mins by TR-FRET assay
[3] = molecular target: Bromodomain-containing protein 4 (Homo sapiens, UniProt O60885, Y97A); test: Inhibition of 6His-Thr-BRD4 (1 to 477 residues) BD1 Y97A mutant (unknown origin) incubated for 30 mins by TR-FRET assay
[4] = species on record: Homo sapiens; test: Selectivity index, ratio of pIC50 of BRD4 BD1 (unknown origin) to pIC50 of BRD4 BD2 (unknown origin)
[5] = Solubility of compound by CLND assay; format: physicochemical

**Q.** With Cn1cc(-c2cc(C(=O)NC3CCOCC3)cc(Cc3ccccc3)n2)nn1 as the compound, how does the Papp [1] read?
**A.** The Papp was 27 ×10⁻⁶ cm/s.

**Q.** And the IC50 [2]?
**A.** The IC50 was 126 nM.

**Q.** What about the IC50 [3] of the same compound?
**A.** Its IC50 is 20000 nM.

**Q.** And the Ratio pIC50 [4]?
**A.** Its Ratio pIC50 is 160.

**Q.** And the solubility kinetic [5]?
**A.** The solubility kinetic was at least 141 µg/mL.

**Q.** What does the source list for Cn1cc(-c2cc(C(=O)NCC3CCOCC3)cc(Cc3ccccc3)n2)nn1?
**A.** Papp [1]: 22 ×10⁻⁶ cm/s; IC50 [2]: 316 nM; IC50 [3]: > 50100 nM; Ratio pIC50 [4]: > 160; solubility kinetic [5]: ≥ 142 µg/mL

**Q.** Which results are given for Cn1cc(-c2cc(C(N)=O)cc(Cc3ccccc3)n2)nn1?
**A.** Papp [1]: 14 ×10⁻⁶ cm/s; IC50 [2]: 251 nM; IC50 [3]: 12600 nM; Ratio pIC50 [4]: 50; solubility kinetic [5]: 40 µg/mL (≈ 136 µM)

**Q.** What does the source list for C[C@H](Oc1ccc(C(=O)NCC[C@H]2CNCCO2)cc1-c1cn(C)nn1)c1ccccn1?
**A.** Papp [1]: < 0.3 ×10⁻⁶ cm/s; IC50 [2]: 63.1 nM; IC50 [3]: 7940 nM; Ratio pIC50 [4]: 125; solubility kinetic [5]: ≥ 182 µg/mL

**Q.** Which results are given for CCNC(=O)c1cc(Cc2ccc(OC)cc2)nc(-c2cn(C)nn2)c1?
**A.** Papp [1]: 32 ×10⁻⁶ cm/s; IC50 [2]: 794 nM; IC50 [3]: > 50100 nM; Ratio pIC50 [4]: > 65; solubility kinetic [5]: 53 µg/mL (≈ 151 µM)

**Q.** Which Papp [1] does the source give for C[C@H](Oc1ccc(C(=O)NCC2CCOCC2)cc1-c1cn(C)nn1)c1ccccn1 here?
**A.** Its Papp is 5.5 ×10⁻⁶ cm/s.

**Q.** What about the IC50 [2] of the same compound?
**A.** Its IC50 is 501 nM.

**Q.** What about the IC50 [3] of the same compound?
**A.** Its IC50 is 31600 nM.

**Q.** What about the Ratio pIC50 [4] of the same compound?
**A.** Its Ratio pIC50 is 65.

**Q.** And the solubility kinetic [5]?
**A.** The solubility kinetic was at least 192 µg/mL.

From ChEMBL document CHEMBL4834404, “Template-Hopping Approach Leads to Potent, Selective, and Highly Soluble Bromo and Extraterminal Domain (BET) Second Bromodomain (BD2) Inhibitors” (J Med Chem, 2021)
